Source: ChEMBL document CHEMBL4507276 (2021)

What was measured:
[1] = biological target: Cyclin-dependent kinase-like 1 (Homo sapiens) (UniProt Q00532); settings: Compound concentration 1000.0 nM
[2] = biological target: Vasoactive intestinal polypeptide receptor 1 (Homo sapiens) (UniProt P32241); test: VIP1/VPAC1/H Cerep selectivity data (BI); settings: Compound concentration 20.0 uM
[3] = biological target: MAP kinase-interacting serine/threonine-protein kinase 2 (Homo sapiens) (UniProt Q9HBH9); test: MKNK2 (MNK2) Invitrogen selectivity data (BI); settings: Compound concentration 3.0 uM
[4] = biological target: Phosphatidylinositol 4-kinase alpha (Homo sapiens) (UniProt P42356); test: PI4KA Invitrogen selectivity data (BI); settings: Compound concentration 3.0 uM
[5] = biological target: Estrogen receptor (Homo sapiens) (UniProt P03372); test: ER_ALPHA_AGON Cerep selectivity data (BI); settings: filed as agonist, Compound concentration 20.0 uM
[6] = biological target: Tyrosine-protein kinase Fyn (Homo sapiens) (UniProt P06241); test: FYN Invitrogen selectivity data (BI); settings: Compound concentration 3.0 uM
[7] = biological target: T1, cGMP-dependent protein kinase 1 (Homo sapiens) (UniProt Q13976); test: PRKG1 Invitrogen selectivity data (BI); settings: Compound concentration 3.0 uM
T1 sequence (whole entry): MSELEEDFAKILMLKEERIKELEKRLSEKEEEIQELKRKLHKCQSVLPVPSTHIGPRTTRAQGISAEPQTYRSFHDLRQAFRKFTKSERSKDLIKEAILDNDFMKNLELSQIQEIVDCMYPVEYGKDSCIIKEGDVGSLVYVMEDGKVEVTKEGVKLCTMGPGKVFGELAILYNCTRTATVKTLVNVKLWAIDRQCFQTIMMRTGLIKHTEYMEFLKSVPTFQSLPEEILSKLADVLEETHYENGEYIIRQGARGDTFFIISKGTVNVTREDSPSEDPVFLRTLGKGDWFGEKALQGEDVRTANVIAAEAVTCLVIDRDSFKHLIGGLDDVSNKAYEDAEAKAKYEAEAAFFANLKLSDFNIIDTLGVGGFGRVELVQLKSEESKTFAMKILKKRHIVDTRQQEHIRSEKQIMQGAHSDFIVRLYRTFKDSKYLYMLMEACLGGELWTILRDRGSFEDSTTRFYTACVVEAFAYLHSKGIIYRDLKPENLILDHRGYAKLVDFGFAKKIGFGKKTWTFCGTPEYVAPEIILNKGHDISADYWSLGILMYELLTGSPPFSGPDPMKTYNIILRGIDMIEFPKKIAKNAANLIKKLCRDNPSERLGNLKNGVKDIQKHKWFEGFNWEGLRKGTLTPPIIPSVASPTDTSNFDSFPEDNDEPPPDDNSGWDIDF

[8] = biological target: Cyclin-dependent kinase 1/cyclin B (Homo sapiens) (UniProt P06493+P14635+Q8WWL7+O95067); test: CDK1/CYCLINB Invitrogen selectivity data (BI); assay type: protein-complex assay; settings: Compound concentration 3.0 uM
[9] = biological target: Insulin receptor-related protein (Homo sapiens) (UniProt P14616); test: INSRR Invitrogen selectivity data (BI); settings: Compound concentration 3.0 uM
[10] = biological target: T2, MAP kinase-activated protein kinase 5 (Homo sapiens) (UniProt Q8IW41); test: MAPKAPK5 Invitrogen selectivity data (BI); settings: Compound concentration 3.0 uM
T2 sequence (whole entry): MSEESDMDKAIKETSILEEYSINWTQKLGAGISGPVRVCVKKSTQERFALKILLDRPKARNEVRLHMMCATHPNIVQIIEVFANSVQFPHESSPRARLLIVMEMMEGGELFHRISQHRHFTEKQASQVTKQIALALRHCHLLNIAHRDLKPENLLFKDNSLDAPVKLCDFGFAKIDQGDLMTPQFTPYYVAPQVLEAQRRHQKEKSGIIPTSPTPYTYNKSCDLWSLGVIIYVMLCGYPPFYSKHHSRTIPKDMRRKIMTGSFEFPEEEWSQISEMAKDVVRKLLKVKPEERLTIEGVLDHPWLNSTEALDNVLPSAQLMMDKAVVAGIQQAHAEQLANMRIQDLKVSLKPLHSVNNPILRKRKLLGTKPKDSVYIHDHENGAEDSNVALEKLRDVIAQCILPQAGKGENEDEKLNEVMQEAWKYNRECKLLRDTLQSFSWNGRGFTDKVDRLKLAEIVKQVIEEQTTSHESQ

[11] = biological target: Protein kinase C beta type (Homo sapiens) (UniProt P05771); test: PRKCB1 Invitrogen selectivity data (BI); settings: Compound concentration 3.0 uM
[12] = biological target: Nitric oxide synthase, inducible (Mus musculus) (UniProt P29477); test: INDUC_NOS Cerep selectivity data (BI); settings: Compound concentration 20.0 uM
[13] = biological target: Receptor-type tyrosine-protein kinase FLT3 (Homo sapiens) (UniProt P36888); test: FLT3 Invitrogen selectivity data (BI); settings: Compound concentration 3.0 uM
[14] = biological target: T3, Discoidin domain-containing receptor 2 (Homo sapiens) (UniProt Q16832); test: DDR2 Invitrogen selectivity data (BI); settings: Compound concentration 3.0 uM
T3 sequence (whole entry): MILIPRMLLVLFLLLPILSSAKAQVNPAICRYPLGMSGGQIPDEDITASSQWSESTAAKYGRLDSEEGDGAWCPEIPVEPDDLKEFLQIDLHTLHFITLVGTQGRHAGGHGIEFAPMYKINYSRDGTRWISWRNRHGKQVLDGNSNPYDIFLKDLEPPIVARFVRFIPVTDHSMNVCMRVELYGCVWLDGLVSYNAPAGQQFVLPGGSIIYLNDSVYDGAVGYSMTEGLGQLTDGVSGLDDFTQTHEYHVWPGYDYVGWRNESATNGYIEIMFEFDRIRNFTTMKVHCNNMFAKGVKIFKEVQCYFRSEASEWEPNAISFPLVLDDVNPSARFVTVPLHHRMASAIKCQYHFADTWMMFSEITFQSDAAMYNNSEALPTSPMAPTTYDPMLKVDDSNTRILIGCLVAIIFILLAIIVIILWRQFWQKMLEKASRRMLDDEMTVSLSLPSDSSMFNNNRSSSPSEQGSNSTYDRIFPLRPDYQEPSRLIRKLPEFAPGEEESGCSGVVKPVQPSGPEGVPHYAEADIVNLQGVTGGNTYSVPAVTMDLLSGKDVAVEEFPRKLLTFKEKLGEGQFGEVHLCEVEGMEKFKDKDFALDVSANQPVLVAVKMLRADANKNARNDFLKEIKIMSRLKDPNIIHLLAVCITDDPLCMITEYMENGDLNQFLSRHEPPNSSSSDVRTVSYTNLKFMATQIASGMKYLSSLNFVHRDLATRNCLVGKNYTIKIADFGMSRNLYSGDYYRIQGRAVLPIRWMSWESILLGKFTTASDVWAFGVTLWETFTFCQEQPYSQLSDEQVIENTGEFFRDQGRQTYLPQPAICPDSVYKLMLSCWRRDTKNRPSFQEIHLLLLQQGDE

[15] = biological target: Substance-P receptor (Homo sapiens) (UniProt P25103); test: NK1/HU Eurofins-Panlabs selectivity data (BI); settings: Compound concentration 10.0 uM
[16] = biological target: CDK8/Cyclin C (Homo sapiens) (UniProt P49336+P24863); test: CDK8_CYCLINC Invitrogen selectivity data (BI); assay type: protein-complex assay; settings: Compound concentration 3.0 uM
[17] = biological target: D(1A) dopamine receptor (Homo sapiens) (UniProt P21728); test: D1/H Cerep selectivity data (BI); settings: filed as antagonist, Compound concentration 20.0 uM
[18] = biological target: BDNF/NT-3 growth factors receptor (Homo sapiens) (UniProt Q16620); test: NTRK2 Invitrogen selectivity data (BI); settings: Compound concentration 3.0 uM

Measured: residual activity

Sequence of Nitric oxide synthase, inducible (Mus musculus) (P29477 whole entry): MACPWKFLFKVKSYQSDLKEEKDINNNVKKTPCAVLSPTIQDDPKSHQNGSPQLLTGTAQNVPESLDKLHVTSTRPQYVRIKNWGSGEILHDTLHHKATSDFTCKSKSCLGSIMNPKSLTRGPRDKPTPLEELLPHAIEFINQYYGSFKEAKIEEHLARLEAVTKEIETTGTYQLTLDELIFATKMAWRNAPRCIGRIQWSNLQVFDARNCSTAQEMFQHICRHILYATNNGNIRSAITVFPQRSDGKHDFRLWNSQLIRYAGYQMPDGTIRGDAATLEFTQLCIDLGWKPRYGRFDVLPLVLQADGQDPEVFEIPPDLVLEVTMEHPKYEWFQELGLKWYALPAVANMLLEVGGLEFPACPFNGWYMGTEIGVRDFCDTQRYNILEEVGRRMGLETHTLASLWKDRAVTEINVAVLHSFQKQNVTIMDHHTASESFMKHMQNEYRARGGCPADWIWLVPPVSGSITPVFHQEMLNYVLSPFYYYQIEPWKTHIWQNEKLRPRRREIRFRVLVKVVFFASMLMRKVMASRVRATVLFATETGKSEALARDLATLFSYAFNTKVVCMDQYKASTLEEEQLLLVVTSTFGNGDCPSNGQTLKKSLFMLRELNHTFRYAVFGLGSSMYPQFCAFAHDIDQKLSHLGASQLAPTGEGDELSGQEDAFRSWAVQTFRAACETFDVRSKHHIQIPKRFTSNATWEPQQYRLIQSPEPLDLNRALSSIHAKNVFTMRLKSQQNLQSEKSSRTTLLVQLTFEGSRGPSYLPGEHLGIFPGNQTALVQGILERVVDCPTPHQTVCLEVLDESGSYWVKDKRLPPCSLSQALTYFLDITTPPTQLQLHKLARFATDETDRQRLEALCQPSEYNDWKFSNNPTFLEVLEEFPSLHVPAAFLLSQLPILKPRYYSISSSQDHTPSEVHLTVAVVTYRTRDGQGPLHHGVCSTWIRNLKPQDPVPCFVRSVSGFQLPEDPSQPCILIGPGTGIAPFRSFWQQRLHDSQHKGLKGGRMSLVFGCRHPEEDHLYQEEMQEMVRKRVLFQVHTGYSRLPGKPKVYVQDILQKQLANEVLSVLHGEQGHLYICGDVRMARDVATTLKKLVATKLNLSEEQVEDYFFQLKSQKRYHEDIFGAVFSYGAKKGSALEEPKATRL
Sequence of D(1A) dopamine receptor (Homo sapiens) (P21728 whole entry): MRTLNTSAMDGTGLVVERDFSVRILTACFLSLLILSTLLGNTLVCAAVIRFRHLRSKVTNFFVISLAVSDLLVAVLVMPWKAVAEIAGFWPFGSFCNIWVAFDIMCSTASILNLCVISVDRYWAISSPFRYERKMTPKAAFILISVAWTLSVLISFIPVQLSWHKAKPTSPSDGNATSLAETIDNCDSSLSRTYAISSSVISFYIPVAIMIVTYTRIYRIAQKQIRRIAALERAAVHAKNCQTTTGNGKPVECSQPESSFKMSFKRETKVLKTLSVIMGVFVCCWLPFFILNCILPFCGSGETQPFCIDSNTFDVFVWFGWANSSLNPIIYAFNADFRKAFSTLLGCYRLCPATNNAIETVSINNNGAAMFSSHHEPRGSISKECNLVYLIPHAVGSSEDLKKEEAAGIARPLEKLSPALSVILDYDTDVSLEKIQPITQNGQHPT
Sequence of Receptor-type tyrosine-protein kinase FLT3 (Homo sapiens) (P36888 whole entry, the tested form may be a part): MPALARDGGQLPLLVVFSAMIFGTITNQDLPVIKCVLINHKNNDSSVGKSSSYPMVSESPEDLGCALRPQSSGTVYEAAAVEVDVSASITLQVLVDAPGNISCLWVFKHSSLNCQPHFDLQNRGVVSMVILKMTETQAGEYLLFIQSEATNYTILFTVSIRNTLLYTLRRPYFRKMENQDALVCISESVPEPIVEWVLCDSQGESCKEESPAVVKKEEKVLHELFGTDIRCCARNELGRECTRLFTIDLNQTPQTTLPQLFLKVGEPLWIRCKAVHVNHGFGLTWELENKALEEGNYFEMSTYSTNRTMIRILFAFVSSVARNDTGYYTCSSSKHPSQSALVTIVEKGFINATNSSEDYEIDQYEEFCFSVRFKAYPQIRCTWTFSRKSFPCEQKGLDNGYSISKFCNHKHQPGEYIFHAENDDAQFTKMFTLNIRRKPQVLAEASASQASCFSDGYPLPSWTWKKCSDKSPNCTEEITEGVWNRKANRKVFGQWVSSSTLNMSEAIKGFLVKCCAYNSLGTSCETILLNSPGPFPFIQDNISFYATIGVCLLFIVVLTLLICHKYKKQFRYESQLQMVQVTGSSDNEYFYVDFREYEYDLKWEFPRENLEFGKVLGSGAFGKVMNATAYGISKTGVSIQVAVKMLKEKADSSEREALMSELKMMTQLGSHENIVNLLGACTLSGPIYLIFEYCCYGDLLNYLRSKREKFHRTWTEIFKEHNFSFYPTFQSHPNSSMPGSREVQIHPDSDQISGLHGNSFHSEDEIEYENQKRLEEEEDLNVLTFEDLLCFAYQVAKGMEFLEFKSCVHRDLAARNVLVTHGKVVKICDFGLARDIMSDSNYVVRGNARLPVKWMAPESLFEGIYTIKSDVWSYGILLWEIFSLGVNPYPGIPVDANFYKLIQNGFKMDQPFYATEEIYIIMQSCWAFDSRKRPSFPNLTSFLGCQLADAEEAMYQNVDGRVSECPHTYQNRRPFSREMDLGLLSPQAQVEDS
Sequence of Vasoactive intestinal polypeptide receptor 1 (Homo sapiens) (P32241 whole entry): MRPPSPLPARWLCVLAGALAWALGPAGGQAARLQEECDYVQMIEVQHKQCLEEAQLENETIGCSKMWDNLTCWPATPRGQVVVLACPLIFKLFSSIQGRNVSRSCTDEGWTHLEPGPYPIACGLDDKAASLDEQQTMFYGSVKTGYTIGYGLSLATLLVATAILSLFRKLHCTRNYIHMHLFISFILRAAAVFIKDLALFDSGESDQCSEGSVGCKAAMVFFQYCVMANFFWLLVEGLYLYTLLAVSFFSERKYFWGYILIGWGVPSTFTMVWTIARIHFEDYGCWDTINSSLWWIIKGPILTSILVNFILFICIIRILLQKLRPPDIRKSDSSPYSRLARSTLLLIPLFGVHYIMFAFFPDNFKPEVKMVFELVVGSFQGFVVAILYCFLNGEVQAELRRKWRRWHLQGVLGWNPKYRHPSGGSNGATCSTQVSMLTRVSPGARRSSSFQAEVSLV
Sequence of Protein kinase C beta type (Homo sapiens) (P05771 2-671 limits assumed): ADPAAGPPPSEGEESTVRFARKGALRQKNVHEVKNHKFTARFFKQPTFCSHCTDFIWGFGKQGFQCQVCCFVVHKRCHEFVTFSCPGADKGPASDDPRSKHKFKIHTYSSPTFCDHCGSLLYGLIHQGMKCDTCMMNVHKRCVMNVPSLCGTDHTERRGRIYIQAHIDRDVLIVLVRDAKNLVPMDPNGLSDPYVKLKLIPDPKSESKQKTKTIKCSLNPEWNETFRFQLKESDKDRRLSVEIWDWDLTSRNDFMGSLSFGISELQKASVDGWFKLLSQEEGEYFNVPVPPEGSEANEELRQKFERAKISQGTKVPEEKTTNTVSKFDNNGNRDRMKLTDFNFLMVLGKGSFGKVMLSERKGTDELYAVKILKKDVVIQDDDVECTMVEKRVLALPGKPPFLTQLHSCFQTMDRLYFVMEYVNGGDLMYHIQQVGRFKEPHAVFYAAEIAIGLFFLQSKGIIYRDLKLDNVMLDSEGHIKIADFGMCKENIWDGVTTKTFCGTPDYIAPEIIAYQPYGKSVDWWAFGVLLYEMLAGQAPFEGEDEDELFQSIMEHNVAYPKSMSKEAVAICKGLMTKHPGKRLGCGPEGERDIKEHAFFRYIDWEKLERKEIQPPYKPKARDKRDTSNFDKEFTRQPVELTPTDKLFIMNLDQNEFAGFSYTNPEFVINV
Sequence of Substance-P receptor (Homo sapiens) (P25103 whole entry): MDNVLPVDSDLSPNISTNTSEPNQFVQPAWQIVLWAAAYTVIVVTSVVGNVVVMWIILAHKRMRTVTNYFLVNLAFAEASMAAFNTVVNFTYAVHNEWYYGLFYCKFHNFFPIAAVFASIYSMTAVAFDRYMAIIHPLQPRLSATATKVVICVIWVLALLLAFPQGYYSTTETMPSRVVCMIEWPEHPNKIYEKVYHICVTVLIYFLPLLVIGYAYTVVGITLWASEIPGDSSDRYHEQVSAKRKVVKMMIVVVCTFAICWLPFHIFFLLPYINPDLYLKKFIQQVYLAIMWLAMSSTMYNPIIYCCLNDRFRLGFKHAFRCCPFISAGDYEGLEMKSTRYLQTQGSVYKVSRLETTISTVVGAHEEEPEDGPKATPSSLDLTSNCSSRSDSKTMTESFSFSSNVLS
Sequence of Estrogen receptor (Homo sapiens) (P03372 whole entry): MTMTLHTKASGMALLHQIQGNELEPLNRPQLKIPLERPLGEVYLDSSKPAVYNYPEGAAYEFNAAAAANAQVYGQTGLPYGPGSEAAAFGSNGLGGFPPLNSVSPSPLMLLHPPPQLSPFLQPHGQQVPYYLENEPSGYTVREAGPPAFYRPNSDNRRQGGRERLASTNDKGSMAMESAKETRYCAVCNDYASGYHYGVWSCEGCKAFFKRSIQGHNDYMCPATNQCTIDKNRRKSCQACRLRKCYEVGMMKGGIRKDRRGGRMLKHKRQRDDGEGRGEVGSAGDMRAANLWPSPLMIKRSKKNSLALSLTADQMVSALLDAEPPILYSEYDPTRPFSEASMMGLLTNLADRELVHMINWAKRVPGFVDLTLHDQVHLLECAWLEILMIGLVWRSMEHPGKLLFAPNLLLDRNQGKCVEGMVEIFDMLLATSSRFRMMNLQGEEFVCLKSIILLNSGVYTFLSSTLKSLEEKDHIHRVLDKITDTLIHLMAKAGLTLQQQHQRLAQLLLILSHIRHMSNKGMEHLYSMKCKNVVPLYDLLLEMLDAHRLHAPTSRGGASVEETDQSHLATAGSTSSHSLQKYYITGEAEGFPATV

CN(C)C(=O)Cn1cc(-c2nc(C3(c4ccc(-c5cnc(N)nc5)cc4)CC3)no2)cn1 [BI 0153]
inactive: [1] 100%

CN(C)C(=O)Cn1cc(-c2nc([C@@](C)(c3ccc(-c4cnc(N)nc4)cc3)C3CC3)no2)cn1 [BI 665915]
inactive: [2] 109% | [3] 99% | [4] 106% | [5] 96% | [6] 96.5% | [7] 102% | [8] 99% | [9] 96% | [10] 98.5% | [11] 98.5% | [12] 79% | [13] 89% | [14] 96% | [15] 104% | [16] 94% | [17] 98% | [18] 94.5%
